Experimental data taken from patent US6737383B1, “Herbicidal oxadiazolidines” (priority 1999, dated 2004).

Legend:
rape = experiment: Test B pre/postemergence rape; type: in vivo, Brassica napus
Summary of the method: (§1)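 Herbicidal effect was estimated by eye on a ten-point control scale after plants spent twelve to sixteen days in a greenhouse following soil or foliar treatment. Foliar sprays targeted plants at one to four leaves; all doses were formulated in a non-phytotoxic solvent with surfactant.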

soybean = experiment: Test B pre/postemergence soybean; type: in vivo, Glycine max
Summary of the method: as §1

morningglory = experiment: Test B pre/postemergence morningglory; type: in vivo, Ipomoea hederacea
Summary of the method: as §1

bedstraw = experiment: Test B pre/postemergence bedstraw; type: in vivo, Galium aparine
Summary of the method: as §1

wild oat = experiment: Test B pre/postemergence wild oat; type: in vivo, Avena fatua
Summary of the method: as §1

cocklebur = experiment: Test B pre/postemergence cocklebur; type: in vivo, Xanthium strumarium
Summary of the method: as §1

bamyardgrass = experiment: Test B flood test barnyardgrass; type: in vivo, Echinochloa crus-galli
Summary of the method: (§2)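 Each value is a visual injury score relative to controls, with 10 meaning complete control and 0 no effect. Evaluation took place twelve to sixteen days after the 2-leaf-stage plants were treated and kept in the greenhouse.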

smallflower flatsedge = experiment: Test B flood test smallflower flatsedge; type: in vivo, Cyperus difformis
Summary of the method: as §2

surinam grass = experiment: Test B pre/postemergence surinam grass; type: in vivo, Brachiaria decumbens
Summary of the method: as §1

duck salad = experiment: Test B flood test duck salad; type: in vivo, Heteranthera limosa
Summary of the method: as §2

velvetleaf = experiment: Test B pre/postemergence velvetleaf; type: in vivo, Abutilon theophrasti
Summary of the method: as §1

crabgrass = experiment: Test B pre/postemergence crabgrass; type: in vivo, Digitaria sanguinalis
Summary of the method: as §1

pigweed = experiment: Test B pre/postemergence pigweed; type: in vivo, Amaranthus retroflexus
Summary of the method: as §1

sugar beet = experiment: Test B pre/postemergence sugar beet; type: in vivo, Beta vulgaris
Summary of the method: as §1

rice = experiment: Test B flood test rice; type: in vivo, Oryza sativa
Summary of the method: as §2

corn = experiment: Test B pre/postemergence corn; type: in vivo, Zea mays
Summary of the method: as §1

[1] = Preemergence, Rate 62 g/ha, scale of 0 to 10 where 0 is no effect and 10 is complete control
[2] = Preemergence, Rate 250 g/ha, scale of 0 to 10 where 0 is no effect and 10 is complete control
[3] = Preemergence, Rate 500 g/ha, scale of 0 to 10 where 0 is no effect and 10 is complete control
[4] = Rate 62 g/ha, Postemergence, scale of 0 to 10 where 0 is no effect and 10 is complete control
[5] = Rate 125 g/ha, Preemergence, scale of 0 to 10 where 0 is no effect and 10 is complete control
[6] = Rate 500 g/ha, Postemergence, scale 0 to 10, 0 no effect, 10 complete control
[7] = Rate 125 g/ha, Postemergence, scale 0 to 10
[8] = Rate 62 g/ha, headed Pre-emergence (flood test species), scale 0 to 10 (0 no effect, 10 complete control)
[9] = Rate 125 g/ha, Pre-emergence, flood test species, scale 0 to 10 where 0 is no effect and 10 is complete control
[10] = Rate 250 g/ha, Pre-emergence, flood-test species, scale 0 to 10, 0 is no effect, 10 is complete control
[11] = Rate 500 g/ha, Pre-emergence, flood test species, scale 0 to 10 (0 no effect, 10 complete control)

Compound: CC(C)N(C(=O)n1oc(=O)n([C@H](C)c2ccccc2)c1=O)c1ccc(F)cc1F [Compound 238]
- Rape plant response rating (rape; [1]): 0
- Rape plant response rating (rape; [2]): 0
- Plant response rating, Rape (rape; [3]): 10
- Rape plant response rating (rape; [4]): 0
- Rape plant response rating (rape; [5]): 0
- Plant response rating (0 to 10; 0 is no effect, 10 is complete control), Rape (rape; Rate 250 g/ha, Postemergence): 4
- Rape plant response rating (rape; [6]): 6
- Soybean plant response rating (soybean; [1]): 0
- Soybean plant response rating (soybean; [2]): 0
- Plant response rating, Soybean (soybean; [3]): 0
- Soybean plant response rating (soybean; [4]): 1
- Soybean plant response rating (soybean; [5]): 0
- Soybean plant response rating (soybean; [6]): 2
- Morningglory plant response rating (morningglory; [1]): 0
- Morningglory plant response rating (morningglory; [2]): 0
- Plant response rating, Morningglory (morningglory; [3]): 3
- Morningglory plant response rating (morningglory; [4]): 2
- Morningglory plant response rating (morningglory; [5]): 0
- Plant response rating (0 to 10; 0 is no effect, 10 is complete control), Morningglory (morningglory; Rate 250 g/ha, Postemergence): 3
- Morningglory plant response rating (morningglory; [6]): 5
- Bedstraw plant response rating (bedstraw; [1]): 0
- Bedstraw plant response rating (bedstraw; [2]): 0
- Plant response rating, Bedstraw (bedstraw; [3]): 3
- Bedstraw plant response rating (bedstraw; [4]): 0
- Bedstraw plant response rating (bedstraw; [7]): 2
- Bedstraw plant response rating (bedstraw; [5]): 0
- Plant response rating (0 to 10; 0 is no effect, 10 is complete control), Bedstraw (bedstraw; Rate 250 g/ha, Postemergence): 8
- Bedstraw plant response rating (bedstraw; [6]): 8
- Wild oats plant response rating (wild oat; [1]): 0
- Wild oats plant response rating (wild oat; [2]): 0
- Plant response rating, Wild oats (wild oat; [3]): 3
- Wild oats plant response rating (wild oat; [4]): 0
- Wild oats plant response rating (wild oat; [5]): 0
- Wild oats plant response rating (wild oat; [6]): 0
- Cocklebur plant response rating (cocklebur; [1]): 0
- Cocklebur plant response rating (cocklebur; [2]): 0
- Cocklebur plant response rating (cocklebur; [4]): 0
- Cocklebur plant response rating (cocklebur; [7]): 0
- Cocklebur plant response rating (cocklebur; [5]): 0
- Plant response rating (0 to 10; 0 is no effect, 10 is complete control), Cocklebur (cocklebur; Rate 250 g/ha, Postemergence): 0
- Cocklebur plant response rating (cocklebur; [6]): 0
- Barnyardgrass plant response rating (bamyardgrass; [8]): 0
- Barnyardgrass plant response rating (bamyardgrass; [9]): 0
- Barnyardgrass plant response rating (bamyardgrass; [10]): 0
- Barnyardgrass plant response rating (bamyardgrass; [11]): 0
- S. Flatsedge plant response rating (smallflower flatsedge; [8]): 0
- S. Flatsedge plant response rating (smallflower flatsedge; [9]): 0
- S. Flatsedge plant response rating (smallflower flatsedge; [10]): 0
- S. Flatsedge plant response rating (smallflower flatsedge; [11]): 0
- B. signalgrass plant response rating (surinam grass; [1]): 0
- B. signalgrass plant response rating (surinam grass; Preemergence, Rate 250 g/ha, scale 0 to 10, 0 is no effect, 10 is complete control): 0
- Plant response rating, B. signalgrass (surinam grass; [3]): 0
- B. signalgrass plant response rating (surinam grass; [4]): 0
- B. signalgrass plant response rating (surinam grass; Rate 125 g/ha, Postemergence, scale 0 (no effect) to 10 (complete control)): 0
- B. signalgrass plant response rating (surinam grass; [5]): 0
- Plant response rating (0 to 10; 0 is no effect, 10 is complete control), B. signalgrass (surinam grass; Rate 250 g/ha, Postemergence): 0
- B. signalgrass plant response rating (surinam grass; [6]): 0
- Ducksalad plant response rating (duck salad; [8]): 0
- Ducksalad plant response rating (duck salad; [9]): 0
- Ducksalad plant response rating (duck salad; [10]): 0
- Ducksalad plant response rating (duck salad; [11]): 0
- Velvetleaf plant response rating (velvetleaf; [1]): 0
- Velvetleaf plant response rating (velvetleaf; [2]): 0
- Plant response rating, Velvetleaf (velvetleaf; [3]): 3
- Velvetleaf plant response rating (velvetleaf; [4]): 1
- Velvetleaf plant response rating (velvetleaf; [5]): 0
- Velvetleaf plant response rating (velvetleaf; [6]): 2
- Crabgrass plant response rating (crabgrass; [1]): 2
- Crabgrass plant response rating (crabgrass; [2]): 10
- Plant response rating, Crabgrass (crabgrass; [3]): 10
- Crabgrass plant response rating (crabgrass; [4]): 0
- Crabgrass plant response rating (crabgrass; [5]): 6
- Plant response rating (0 to 10; 0 is no effect, 10 is complete control), Crabgrass (crabgrass; Rate 250 g/ha, Postemergence): 2
- Crabgrass plant response rating (crabgrass; [6]): 5
- Redroot pigweed plant response rating (pigweed; [1]): 0
- Redroot pigweed plant response rating (pigweed; [2]): 0
- Plant response rating, Redroot pigweed (pigweed; [3]): 9
- Redroot pigweed plant response rating (pigweed; [4]): 0
- Redroot pigweed plant response rating (pigweed; [5]): 0
- Plant response rating (0 to 10; 0 is no effect, 10 is complete control), Redroot pigweed (pigweed; Rate 250 g/ha, Postemergence): 0
- Redroot pigweed plant response rating (pigweed; [6]): 5
- Sugarbeets plant response rating (sugar beet; [1]): 0
- Sugarbeets plant response rating (sugar beet; [2]): 3
- Plant response rating, Sugarbeets (sugar beet; [3]): 6
- Sugarbeets plant response rating (sugar beet; [4]): 0
- Sugarbeets plant response rating (sugar beet; [5]): 0
- Sugarbeets plant response rating (sugar beet; [6]): 0
- Rice plant response rating (rice; [8]): 0
- Rice plant response rating (rice; [9]): 0
- Rice plant response rating (rice; [10]): 0
- Rice plant response rating (rice; [11]): 0
- Corn plant response rating (corn; [1]): 0
- Corn plant response rating (corn; [2]): 0
- Plant response rating, Corn (corn; [3]): 0
- Corn plant response rating (corn; [4]): 0
- Corn plant response rating (corn; [7]): 0
- Corn plant response rating (corn; [5]): 0
- Plant response rating (0 to 10; 0 is no effect, 10 is complete control), Corn (corn; Rate 250 g/ha, Postemergence): 0
- Corn plant response rating (corn; [6]): 0
